Data reported in patent US20050187240A1, “Aaptamine and isoaaptamine and structural modifications thereof” (The Arizona Board of Regents, Acting for and on behalf of …, priority 2004, published 2005).
Values after ≈ are worked out from the molar mass of the structure shown. Where a name gives a salt, the structure may show the parent alone. Read-outs that look alike come from different tables or passages of the source.

Key:
Enterobacter cloacae = assay: Broth microdilution susceptibility assay, Enterobacter cloacae; assay type: cell-based; settings: Table 4, read-out: Range of minimum inhibitory concentration
Escherichia coli = assay: Broth microdilution susceptibility assay, Escherichia coli; assay type: cell-based; settings: for MIC: Table 4, read-out: Range of minimum inhibitory concentration
CNS SF-268 = assay: Cancer cell growth inhibition, CNS SF-268; assay type: cell-based, human; settings: Homo sapiens, CNS SF-268
Procedure: (§1) Biology The cancer cell growth inhibitory properties were examined using the murine P388 lymphocytic leukemia cell line and a selection of human cancer cell lines.
(§2) All of the synthetic products were evaluated against a minipanel of human cancer cell lines, the murine P388 lymphocytic leukemia cell line and a selection of microorganisms.

Micrococcus luteus = assay: Broth microdilution susceptibility assay, Micrococcus luteus; assay type: cell-based; settings: for MIC: Table 4, read-out: Range of minimum inhibitory concentration
Staphylococcus aureus = assay: Broth microdilution susceptibility assay, Staphylococcus aureus; assay type: cell-based; settings: for MIC: Table 4, read-out: Range of minimum inhibitory concentration
[1] = system: murine P388 lymphocytic leukemia cell line; assay: Cancer cell growth inhibition, murine P388 lymphocytic leukemia cell line; assay type: cell-based; settings: for IC50: Mus musculus
Description: (§3) Evaluation of demethyloxyaaptamine (3), aaptamine (1), isoaaptamine (2) and hystatin 1 (11) against the Arizona State University Cancer Research Institute's human tumor cell line panel (Table 1) and the NCI 60-cell line human tumor screen were undertaken. (Boyd, M. R., Cancer: Principles and Practices of Oncology Updates; DeVita, et al., Eds; Lippincott: Philadelphia, 1989, Vol. 10, No. 3, pp. 1-12; Boyd, et al., Drug Development Research 1995, 34, 91-109; Boyd, M. R., et al. Cytotoxic Anticancer Drugs: Models and Concepts for Drug Discovery and Development; Valeriote, A., et al., Eds, Kluwer Academic Publishers: Amsterdam, 1992, pp. 11-34.)
as §1, §2

[2] = system: Stenotrophomonas maltophilia; assay: Broth microdilution susceptibility assay, Stenotrophomonas maltophilia; assay type: cell-based; settings: for MIC: Table 4, Stenotrophomonas maltophil, read-out: Range of minimum inhibitory concentration
Enterococcus faecalis = assay: Broth microdilution susceptibility assay, Enterococcus faecalis; assay type: cell-based; settings: Table 4, read-out: Range of minimum inhibitory concentration
colon KM 20L2 = assay: Cancer cell growth inhibition, colon KM 20L2; assay type: cell-based, human; settings: Homo sapiens, colon KM 20L2
Description: as §3, §1, §2

Streptococcus pneumoniae = assay: Broth microdilution susceptibility assay, Streptococcus pneumoniae; assay type: cell-based; settings: for MIC: Table 4, read-out: Range of minimum inhibitory concentration
pancreas BXPC-3 = assay: Cancer cell growth inhibition, pancreas BXPC-3; assay type: cell-based, human; settings: Homo sapiens, pancreas BXPC-3
Procedure: as §1, §2

breast MCF-7 = assay: Cancer cell growth inhibition, breast MCF-7; assay type: cell-based, human; settings: Homo sapiens, MCF7, breast MCF-7
Procedure: as §1, §2

Cryptococcus neoformans = assay: Broth microdilution susceptibility assay, Cryptococcus neoformans; assay type: cell-based; settings: for MIC: Table 4, read-out: Range of minimum inhibitory concentration
prostrate DU-145 = assay: Cancer cell growth inhibition, prostate DU-145; assay type: cell-based, human; settings: Homo sapiens
Procedure: as §1, §2

Neisseria gonorrhoeae = assay: Broth microdilution susceptibility assay, Neisseria gonorrhoeae; assay type: cell-based; settings: for MIC: Table 4, read-out: Range of minimum inhibitory concentration
lung NCI-H460 = assay: Cancer cell growth inhibition, lung NCI-H460; assay type: cell-based, human; settings: Homo sapiens, lung NCI-H460
Description: as §3, §1, §2

Candida albicans = assay: Broth microdilution susceptibility assay, Candida albicans; assay type: cell-based; settings: for MIC: Table 4, read-out: Range of minimum inhibitory concentration
PKC alpha = PKC alpha (Homo sapiens, UniProt P17252); assay: Inhibition of PKC catalytic activity (peptide substrate phosphorylation); assay type: biochemical; settings: 30 μM compound; 1 μM phorbol 12-myristate 13-acetate, 100 μg/ml phospholipid; mean±SEM, three experiments; read-out: percent inhibition of PKC catalytic activity
Description: We further evaluated the ability of the derivatives to inhibit PKC catalytic activity. […] Inhibition by 10c was 19.5±7.6% and inhibition by 4, 5, and 9a, b, c was 6% or less (all values are mean±SEM, three experiments). […] In both cases, the inhibition curves were steeper than predicted for a competitive inhibitor, consistent with a complicated mechanism of action (Hill coefficients for 10a and 10b of 1.5±0.1 and 2.0±0.5, respectively).

[3] = Table 3, read-out: Cancer cell growth inhibitory ED50
[4] = Table 5, read-out: Cancer Cell Line Results ED50
[5] = P388, Table 3, leukemia P-388, read-out: Cancer cell growth inhibitory ED50
[6] = Table 5, leukemia P388, read-out: Cancer Cell Line Results ED50
[7] = DU-145, Table 5, prostate DRU-145, read-out: Cancer Cell Line Results ED50
[8] = Table 3, prostrate DU-145, read-out: Cancer cell growth inhibitory ED50

Oc1cc2ccnc3c2c(c1O)NC=C3 (as salt: hydrobromid) [Compound 15, 8,9-Dihydroxy-1H-Benzo[de][1,6]naphthyridine hydrobromide]
melting point: 245 to 248 °C (dec.)

COc1cc2c3c(cc[n+](C)c3c1OC)N(C)C=C2.[I-] [Compound 5, 1,4-Dimethyl-8,9-dimethoxy-4H-benzo-[de][1,6]naphthyridin-1-ium iodide]
MIC (Enterobacter cloacae): > 64 mg/L
MIC (Escherichia coli): > 64 mg/L
IC50 (CNS SF-268; [3]): 0.69 mg/L
IC50 (CNS SF-268; [4]): 0.69 mg/L
MIC (Micrococcus luteus): 16 to 32 mg/L
MIC (Staphylococcus aureus): > 64 mg/L
IC50 [1, 5]: 3.9 mg/L
IC50 [1, 6]: 3.89 mg/L
P388 ED50 ([1]; murine P388): 3.9 mg/L
MIC [2]: > 64 mg/L
MIC (Enterococcus faecalis): > 64 mg/L
IC50 (colon KM 20L2; [3]): 6.1 mg/L
IC50 (colon KM 20L2; [4]): 6.1 mg/L
MIC (Streptococcus pneumoniae): > 64 mg/L
IC50 (pancreas BXPC-3; [3]): 7.1 mg/L
IC50 (pancreas BXPC-3; [4]): 7.1 mg/L
IC50 (breast MCF-7; [3]): 4.9 mg/L
IC50 (breast MCF-7; [4]): 4.9 mg/L
MIC (Cryptococcus neoformans): > 64 mg/L
IC50 (prostrate DU-145; [7]): 3.5 mg/L
IC50 (prostrate DU-145; [8]): 3.5 mg/L
MIC (Neisseria gonorrhoeae): > 64 mg/L
IC50 (lung NCI-H460; [3]): > 10 mg/L
IC50 (lung NCI-H460; [4]): > 10 mg/L
MIC (Candida albicans): > 64 mg/L
inhibition at 30 µM (PKC alpha): ≤ 6%

COc1cc2c3c(ccnc3c1O)N(C)C=C2 [Compound 8, 4-Methyl-8-methoxy-9-hydroxy-4H-benzo[de][1,6]naphthyridine]
MIC (Enterobacter cloacae): > 64 mg/L
MIC (Escherichia coli): > 64 mg/L
IC50 (CNS SF-268; [3]): > 10 mg/L
MIC (Micrococcus luteus): > 64 mg/L
MIC (Staphylococcus aureus): > 64 mg/L
IC50 [1, 5]: > 10 mg/L
MIC [2]: > 64 mg/L
MIC (Enterococcus faecalis): > 64 mg/L
IC50 (colon KM 20L2; [3]): > 10 mg/L
MIC (Streptococcus pneumoniae): > 64 mg/L
IC50 (pancreas BXPC-3; [3]): > 10 mg/L
IC50 (breast MCF-7; [3]): > 10 mg/L
MIC (Cryptococcus neoformans): > 64 mg/L
IC50 (prostrate DU-145; [8]): > 10 mg/L
MIC (Neisseria gonorrhoeae): 4 mg/L (≈ 17.5 µM)
IC50 (lung NCI-H460; [3]): > 10 mg/L
MIC (Candida albicans): > 64 mg/L

COc1cc(CN2C=Cc3cc(OC)c(OC)c4nccc2c34)cc(OC)c1OC.Cl [Compound 9c, 8,9-Dimethoxy-4-(3,4,5-trimethoxybenzyl)-4H-benzo[de][1,6]naphthyridine hydrochloride]
Range of minimum inhibitory concentration (Escherichia coli; Table 6): * (no inhibition at 64 μg/mL)
IC50 (CNS SF-268; [4]): > 10 mg/L
Range of minimum inhibitory concentration (Micrococcus luteus; Table 6): * (no inhibition at 64 μg/mL)
Range of minimum inhibitory concentration (Staphylococcus aureus; Table 6): * (no inhibition at 64 μg/mL)
IC50 [1, 6]: 4.64 mg/L
Range of minimum inhibitory concentration ([2]; Table 6): * (no inhibition at 64 μg/mL)
melting point: 198 to 200 °C (dec.)
IC50 (colon KM 20L2; [4]): 3.4 mg/L
Range of minimum inhibitory concentration (Streptococcus pneumoniae; Table 6): * (no inhibition at 64 μg/mL)
IC50 (pancreas BXPC-3; [4]): > 10 mg/L
IC50 (breast MCF-7; [4]): > 10 mg/L
Range of minimum inhibitory concentration (Cryptococcus neoformans; Table 6): * (no inhibition at 64 μg/mL)
IC50 (prostrate DU-145; [7]): > 10 mg/L
Range of minimum inhibitory concentration (Neisseria gonorrhoeae; Table 6): 64 mg/L
IC50 (lung NCI-H460; [4]): > 10 mg/L
Range of minimum inhibitory concentration (Candida albicans; Table 6): * (no inhibition at 64 μg/mL)
inhibition at 30 µM (PKC alpha): ≤ 6%
